According to patent US20250339391A1, “METHODS FOR EFFECTIVE MANAGEMENT OF PAIN” (South Rampart Pharma, Inc., priority 2024, published 2025):
Entries after “also recorded” stand apart in the source; their conditions may differ.

Legend:
Sprague-Dawley rats = experiment: 28-day oral toxicity study in Sprague-Dawley rats with 14-day recovery (GLP); format: in vivo
Description: 5) A 28-day Oral Toxicity Study of SRP-001 in Sprague-Dawley Rats with 14-day Recovery (GLP study) We next set out to determine the toxicity and toxicokinetics of SRP-001 when administered via oral gavage once daily to Sprague-Dawley Rats for 28 d (Calvert Labs/Altasciences, Scott Township, PA USA). The study also assessed the reversibility of any toxicity observed with a 14-d recovery period. One hundred thirty-six experimentally naïve Sprague-Dawley rats (68 males and 68 females), 8 weeks old and weighing 167-295 g for males and females at the outset of the study, were assigned to toxicology treatment groups (Groups 1-4) or toxicokinetic groups (Groups 5-7). For toxicology groups, 10 animals/sex/dose were administered 0, 300, 900, or 1500 mg/kg/d SRP-001. An additional 5 animals/sex/dose in Groups 1 and 4 were targeted for a 14-d recovery period and euthanized on day 43. For toxicokinetic groups, 6 animals/sex/dose were administered 300, 900, or 1500 mg/kg/d SRP-001. Mortality/morbidity was performed twice daily and once prior to scheduled sacrifice. Animals in Groups 1-4 were observed prior to each dose administration and 1-3 h post-dose. Animals in Groups 1-4 were also observed once daily on non-dosing days and once prior to scheduled sacrifice. Body weights were recorded prior to randomization/selection, prior to dose administration on day 1, and weekly thereafter. Food consumption was determined weekly for animals in Groups 1-4. Ophthalmology examinations were performed before treatment initiation and during the last week of dosing for animals in Groups 1-4. The functional observational battery was assessed for 5 animals/sex/group in Groups 1-4 once prior to dosing and at 1-2 h following dose administration on day 1. Blood for evaluation of hematology, coagulation, and clinical chemistry and urine for urinalysis was collected from animals in Groups 1-4 on day 29 or day 43. Blood for toxicokinetic evaluation was collected from animals in Groups 5-7 at selected timepoints on days 1 and 28. All surviving animals in Groups 1-4 were sacrificed on day 29 or day 43. Selected tissues were harvested at necropsy, selected organs weighed, and selected tissues evaluated microscopically.

[1] = Stability of API and oral nanosuspension; format: physicochemical
Procedure: The drug therapeutic candidate is manufactured in a two-step process (Latitude Pharmaceuticals, Inc., San Diego, CA USA). First, SRP-001 is jet milled. Second, the milled API is dispersed in a solution comprising 1% hydroxypropyl cellulose (1% HPC) and sterile water for injection and subjected to wet milling. The target particle size is approximately D90 0.15 μm. […] An oral nanoparticle suspension containing 100 mg/mL SRP-001 in aqueous 1% HPC preserved with 0.1% sodium benzoate was manufactured for use in nonclinical studies as Lot LPI2021028 and stored at 5° C.±3° C. […] The same formulation as above was manufactured under cGMP for use in clinical studies as Lot LPI2021031 and stored at 5° C.±3° C. […] This lot has been placed on stability at 5° C., 25° C./60% RH, and 40° C./75% RH. Finally, an appearance-matched placebo consisting of 2% microcrystalline cellulose in aqueous 1% HPC preserved with 0.1% sodium benzoate and 0.05% EDTA disodium dihydrate was manufactured under cGMP for use in clinical studies. The above oral suspensions were manufactured by Latitude Pharmaceuticals Inc. (San Diego, CA, USA).

Male rats = experiment: Rat micronucleus in vivo study
Procedure: The induction of numerical aberrations was within the 95% control limit of the historical negative control data. […] Approximately 48 h after the second dose administration, peripheral blood was collected for flow cytometric analysis of micronuclei. There was no significant increase in the incidence of micronuclei in the test article-dosed animals compared to the concurrent vehicle control. The vehicle control value was compatible with the historical range of % micronucleated reticulocytes (MnRETs). There was a statistically significant increase in MnRETs in the positive control compared to the concurrent vehicle control. […] The vehicle control was 10% Labrasol, 10% DMSO, and 80% PEG400. The positive control for the Comet assay, ethyl methanesulfonate (EMS), was orally administered at 200 mg/kg/dose for two consecutive days at a dose volume of 10 mL/kg/dose. […] Animals were euthanized 3-4 h after the last dose administration. The liver and glandular stomach were collected and processed for comet evaluation.

[2] = Genotoxicity battery, weight of the evidence; conditions: Ames, chromosomal aberration, micronucleus and Comet assays
Procedure: To transition SRP-001 into the clinic for human use, a full set of in vivo and in vitro genotoxicity studies were performed to assess the potential genotoxicity of SRP-001.
To further evaluate the potential genotoxicity of SRP-001 and determine the validity of the in vitro findings, a second in vivo assay, a GLP-compliant Comet assay, was conducted in accordance with ICH S2(R1) Guidance on Genotoxicity Testing and Data Interpretation for Pharmaceuticals Intended for Human Use. […] SRP-001 was tested to evaluate its mutagenic potential by measuring its ability to induce reverse mutations at selected loci of several strains of Salmonella typhimurium (S. typhimurium) and at the tryptophan locus of Escherichia coli (E. coli) strain WP2 uvrA in the presence and absence of an exogenous metabolic activation system (Bioreliance, Rockville, MD USA). Dimethyl sulfoxide (10% DMSO) was used as the vehicle. The dose levels tested in the preliminary toxicity assay were 6.67, 10.0, 33.3, 66.7, 100, 333, 667, 1000, 3333, and 5000 μg per plate. No precipitate was observed. […] The dose levels tested in the mutagenicity assay were 100, 333, 667, 1000, 3333, and 5000 μg per plate. […] In the preliminary toxicity assay, the doses tested ranged from 0.0405 to 405 μg/mL (1 mM), which was the limit dose for this assay (Bioreliance, Rockville, MD USA).

## CCN(CC)C(=O)c1ccccc1S(=O)(=O)NCC(=O)Nc1ccc(O)cc1 [SRP-001, N,N-diethyl-2-[[2-(4-hydroxyanilino)-2-oxo-ethyl]sulfamoyl]benzamide]
Sprague-Dawley rats; both, Sprague-Dawley, rat, in vivo, 28 d
  doses with minimal to mild centrilobular hepatocellular hypertrophy: ≥ 300 mg/kg/day
Sprague-Dawley rats; both, Sprague-Dawley, rat, in vivo, po, 28 d
  doses without treatment-related adverse effects: up to 1500 mg/kg/day
Sprague-Dawley rats; once daily for 28 d
  no-adverse effect level (NOAEL): 1500 mg/kg
Sprague-Dawley rats; rat, in vivo
  hematology and serum chemistry changes: increases in globulin, albumin, and total protein and decreases in aspartate aminotransferase, alkaline phosphatase, and mean corpuscular hemoglobin concentration
[1]; 25° C./60% RH
  API stable for: at least 9 months
[1]; 40° C./75% RH
  API stable for: ≥ 6 months
Male rats; 500, 1,000 and 2,000 mg/kg/d oral, two days
  incidence of micronuclei / clastogenicity: negative (non-clastogenic)
Male rats; treatment groups
  % RETs: Statistically significant decreases in % RETs
[2]
  genotoxicity, overall conclusion: not genotoxic; also recorded: negative for genotoxicity
